From the NIST ThermoML archive (doi:10.1016/j.fluid.2013.10.022) come the findings set out here.

± gives the expanded uncertainty stated by the source.

Assay in the first data set: not given
Conditions: 298.2 K; 101.33 kPa; Liquid; Vibrating tube method.
For orientation: mass density means the mass of a sample divided by its volume. Consider `CCCCC(CC)CO` (configuration not stated) [2-ethyl-1-hexanol], for which the mass density is recorded as 830.22 ± 0.24 kg/m3.
On the same count and under the same terms, then `CCCC(=O)O` [butanoic acid], with 952.68 ± 0.23 kg/m3; and `CCCCCCCCO` [octan-1-ol], with 821.69 ± 0.24 kg/m3.

A short description of a further data set: refractive index (Na D-line) (dimensionless). Particulars: 298.2 K; 101.33 kPa; Liquid; Standard Abbe refractometry.
One may read the refractive index as the speed of light in vacuum divided by its phase velocity in the sample. As for `CCCCC(CC)CO` (configuration not stated) [2-ethyl-1-hexanol], the refractive index is on record as 1.4293 ± 0.0008.
As to `CCCC(=O)O` [butanoic acid], the refractive index stood at 1.3977 ± 0.0008.
As for `CCCCCCCCO` [octan-1-ol], the refractive index is 1.4276 ± 0.0008.
Regarding `O` [water], the refractive index is on record as 1.3324 ± 0.0008.
